Converted amounts (≈) assume the structure as drawn.
How the values were obtained:
Salmonella typhimurium = test: Ames test, mutagenic activity; type: cell-based
Helicobapter pylori = test: Minimal inhibiting concentration (agar dilution); type: cell-based
Procedure: Substances under examination: EU11100, EU11102, EU11103, EU11104. Comparison substance: Metronidazole Solubilization of the substances: All the substances to be studied are dissolved at room temperature in DMSO. […] 10 strains of Helicobapter pylori are used of recent clinical isolation […] The sowing of the bacteria, prepared as described in the preceding test is carried out by means a "multi-point inoculator". After 48 hours incubation under the condition described in the preceding test, the plates are examined and the Minimal Inhibiting Concentration is evaluated, namely that dose corresponding to growth absence.

SMILES: COc1cc(C(O)c2ncc([N+](=O)[O-])n2C)c(O)c(C(C)(C)C)c1 (stereo not shown) [EU11100, 5-nitro-1-methyl-imidazolyl-3-terbutyl-2-hydroxy-5-methoxy-phenyl-carbinol]
- toxicity to the Salmonella strains (Salmonella typhimurium; 1000 µg/capsule, in the absence of metabolic activation): toxic
- mutagenic activity (Salmonella typhimurium; general statement): practically no mutagenic activity
- doubling of the base value (Salmonella typhimurium; strain TA-100, without metabolic activation, 500 µg/capsule): 1.95 times
- signal in other strains (Salmonella typhimurium; strains other than TA-100, without metabolic activation): do not give rise to any particular signal
- spontaneous reversion of Salmonella (Salmonella typhimurium; with metabolic activation, 250, 500 and 1000 µg/capsule): does not increase the spontaneous reversion of Salmonella
- MIC50 (Helicobapter pylori; 10 strains): 0.03 µg/mL (≈ 0.0895 µM)
- MIC90 (Helicobapter pylori; 10 strains): 0.06 µg/mL (≈ 0.179 µM)
- MIC range (Helicobapter pylori; 10 strains): 0.015 to 0.016 µg/mL
- MIC values (Helicobapter pylori; in words, compared with Metronidazole): very low MIC values
- MIC (Helicobapter pylori; strain 1): 0.12 µg/mL (≈ 0.358 µM)
- MIC (Helicobapter pylori; strain 2): 0.03 µg/mL (≈ 0.0895 µM)
- MIC (Helicobapter pylori; strain 3): 0.03 µg/mL (≈ 0.0895 µM)
- MIC (Helicobapter pylori; strain 4): 0.03 µg/mL (≈ 0.0895 µM)
- MIC (Helicobapter pylori; strain 5): 0.015 µg/mL (≈ 0.0447 µM)
- MIC (Helicobapter pylori; strain 6): 0.03 µg/mL (≈ 0.0895 µM)
- MIC (Helicobapter pylori; strain 7): 0.06 µg/mL (≈ 0.179 µM)
- MIC (Helicobapter pylori; strain 8): 0.03 µg/mL (≈ 0.0895 µM)
- MIC (Helicobapter pylori; strain 9): 0.03 µg/mL (≈ 0.0895 µM)
- MIC (Helicobapter pylori; strain 10): 0.03 µg/mL (≈ 0.0895 µM)
